The values below come from article PMC6437697 (Journal of Medicinal Chemistry, 2019).

Common to all, as to experiment: KINOMEscan
Type in all cases: binding
Holding throughout (conditions): read-out: % control activity remaining

For assay [1], the target named is T1, CHEK2 (Homo sapiens, UniProt O96017).
T1 construct: purchased Eurofins DiscoverX KINOMEscan

Assay [2] concerns the target T2, FGFR4 (Homo sapiens, UniProt P22455).
T2 construct: purchased Eurofins DiscoverX KINOMEscan

Assay [3] concerns the target T3, PRKD2 (Homo sapiens, UniProt Q9BZL6).
T3 construct: purchased Eurofins DiscoverX KINOMEscan
T3 sequence (Q9BZL6 1-878): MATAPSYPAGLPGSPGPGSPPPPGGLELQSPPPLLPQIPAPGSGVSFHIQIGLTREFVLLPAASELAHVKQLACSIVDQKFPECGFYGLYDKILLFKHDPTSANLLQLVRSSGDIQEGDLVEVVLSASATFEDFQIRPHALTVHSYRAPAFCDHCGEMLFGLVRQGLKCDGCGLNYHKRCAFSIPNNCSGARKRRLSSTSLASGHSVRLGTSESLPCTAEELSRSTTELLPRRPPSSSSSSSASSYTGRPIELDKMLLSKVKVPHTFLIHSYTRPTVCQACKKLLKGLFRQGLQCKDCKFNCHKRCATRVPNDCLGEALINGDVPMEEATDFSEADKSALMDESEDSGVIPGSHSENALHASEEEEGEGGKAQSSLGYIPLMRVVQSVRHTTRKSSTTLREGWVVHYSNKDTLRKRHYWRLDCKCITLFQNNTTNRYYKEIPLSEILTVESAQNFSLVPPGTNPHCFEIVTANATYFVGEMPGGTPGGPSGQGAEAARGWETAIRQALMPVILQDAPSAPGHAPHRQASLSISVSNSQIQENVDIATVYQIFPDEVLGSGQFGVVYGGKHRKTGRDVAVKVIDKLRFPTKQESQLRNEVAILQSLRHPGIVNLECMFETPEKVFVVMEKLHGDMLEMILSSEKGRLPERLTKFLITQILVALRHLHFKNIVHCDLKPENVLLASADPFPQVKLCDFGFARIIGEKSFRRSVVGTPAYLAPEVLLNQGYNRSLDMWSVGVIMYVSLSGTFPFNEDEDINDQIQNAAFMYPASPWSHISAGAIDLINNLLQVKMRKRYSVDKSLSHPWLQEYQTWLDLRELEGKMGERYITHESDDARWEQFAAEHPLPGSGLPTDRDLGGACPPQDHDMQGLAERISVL

Assay [4] has as its target T4, NLK (Homo sapiens, UniProt Q9UBE8).
T4 construct: purchased Eurofins DiscoverX KINOMEscan
T4 sequence (Q9UBE8 1-527): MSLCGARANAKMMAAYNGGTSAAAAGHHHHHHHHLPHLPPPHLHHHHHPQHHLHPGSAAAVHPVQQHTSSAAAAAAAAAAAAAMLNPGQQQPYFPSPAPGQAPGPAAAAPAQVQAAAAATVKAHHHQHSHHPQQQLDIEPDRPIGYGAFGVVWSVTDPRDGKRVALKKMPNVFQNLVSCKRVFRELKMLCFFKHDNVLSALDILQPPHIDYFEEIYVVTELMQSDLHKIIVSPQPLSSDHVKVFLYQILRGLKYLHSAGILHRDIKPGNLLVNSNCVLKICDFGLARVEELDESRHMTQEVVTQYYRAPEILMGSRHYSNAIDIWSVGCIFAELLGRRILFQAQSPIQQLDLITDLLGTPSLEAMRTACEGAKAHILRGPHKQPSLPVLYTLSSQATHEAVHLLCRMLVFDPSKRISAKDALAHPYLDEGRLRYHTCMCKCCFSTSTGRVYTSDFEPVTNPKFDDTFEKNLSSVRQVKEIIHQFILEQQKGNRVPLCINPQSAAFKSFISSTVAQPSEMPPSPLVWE

The target in assay [5] is T5, MST1 (Homo sapiens, UniProt Q13043).
T5 construct: purchased Eurofins DiscoverX KINOMEscan
T5 sequence (Q13043 1-487): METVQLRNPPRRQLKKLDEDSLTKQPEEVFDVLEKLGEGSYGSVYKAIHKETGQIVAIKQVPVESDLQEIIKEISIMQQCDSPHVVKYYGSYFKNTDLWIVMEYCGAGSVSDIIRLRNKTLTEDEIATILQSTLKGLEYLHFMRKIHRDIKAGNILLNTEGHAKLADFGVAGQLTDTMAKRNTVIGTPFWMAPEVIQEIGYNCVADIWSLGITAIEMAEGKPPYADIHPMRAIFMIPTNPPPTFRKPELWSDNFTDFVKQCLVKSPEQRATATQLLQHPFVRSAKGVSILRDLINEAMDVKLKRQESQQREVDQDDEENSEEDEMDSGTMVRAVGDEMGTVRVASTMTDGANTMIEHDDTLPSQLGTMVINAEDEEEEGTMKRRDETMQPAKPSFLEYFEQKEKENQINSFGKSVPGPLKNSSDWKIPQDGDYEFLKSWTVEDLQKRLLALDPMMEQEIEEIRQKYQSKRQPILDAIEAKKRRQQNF

Assay [6] concerns the target T6, IRAK1 (Homo sapiens, UniProt P51617).
T6 construct: purchased Eurofins DiscoverX KINOMEscan

For assay [7], the target named is T7, FYN (Homo sapiens, UniProt P06241).
T7 construct: purchased Eurofins DiscoverX KINOMEscan

In assay [8] the target is T8, ABL1-nonphosphorylated (Homo sapiens, UniProt P00519).
T8 construct: purchased Eurofins DiscoverX KINOMEscan

The target in assay [9] is T9, RIOK1 (Homo sapiens, UniProt Q9BRS2).
T9 construct: purchased Eurofins DiscoverX KINOMEscan
T9 sequence (Q9BRS2 1-568): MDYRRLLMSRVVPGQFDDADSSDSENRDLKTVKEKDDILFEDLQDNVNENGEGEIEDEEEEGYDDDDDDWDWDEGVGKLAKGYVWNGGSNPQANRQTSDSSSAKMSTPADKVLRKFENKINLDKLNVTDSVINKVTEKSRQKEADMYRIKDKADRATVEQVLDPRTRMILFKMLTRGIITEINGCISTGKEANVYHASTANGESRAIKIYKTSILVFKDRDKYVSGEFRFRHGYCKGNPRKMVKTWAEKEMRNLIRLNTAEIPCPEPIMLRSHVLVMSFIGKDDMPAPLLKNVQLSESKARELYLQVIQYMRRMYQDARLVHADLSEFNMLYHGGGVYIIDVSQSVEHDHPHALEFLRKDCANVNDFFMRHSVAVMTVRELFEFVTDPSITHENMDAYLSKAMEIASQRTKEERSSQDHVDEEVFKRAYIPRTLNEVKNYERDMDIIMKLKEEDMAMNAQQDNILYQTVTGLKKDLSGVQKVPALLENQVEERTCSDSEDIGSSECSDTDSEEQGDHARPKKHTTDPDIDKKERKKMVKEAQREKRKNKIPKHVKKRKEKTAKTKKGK

Assay [10] concerns the target T10, CAMK2A (Homo sapiens, UniProt Q9UQM7).
T10 construct: purchased Eurofins DiscoverX KINOMEscan

T8 sequence (P00519 whole entry): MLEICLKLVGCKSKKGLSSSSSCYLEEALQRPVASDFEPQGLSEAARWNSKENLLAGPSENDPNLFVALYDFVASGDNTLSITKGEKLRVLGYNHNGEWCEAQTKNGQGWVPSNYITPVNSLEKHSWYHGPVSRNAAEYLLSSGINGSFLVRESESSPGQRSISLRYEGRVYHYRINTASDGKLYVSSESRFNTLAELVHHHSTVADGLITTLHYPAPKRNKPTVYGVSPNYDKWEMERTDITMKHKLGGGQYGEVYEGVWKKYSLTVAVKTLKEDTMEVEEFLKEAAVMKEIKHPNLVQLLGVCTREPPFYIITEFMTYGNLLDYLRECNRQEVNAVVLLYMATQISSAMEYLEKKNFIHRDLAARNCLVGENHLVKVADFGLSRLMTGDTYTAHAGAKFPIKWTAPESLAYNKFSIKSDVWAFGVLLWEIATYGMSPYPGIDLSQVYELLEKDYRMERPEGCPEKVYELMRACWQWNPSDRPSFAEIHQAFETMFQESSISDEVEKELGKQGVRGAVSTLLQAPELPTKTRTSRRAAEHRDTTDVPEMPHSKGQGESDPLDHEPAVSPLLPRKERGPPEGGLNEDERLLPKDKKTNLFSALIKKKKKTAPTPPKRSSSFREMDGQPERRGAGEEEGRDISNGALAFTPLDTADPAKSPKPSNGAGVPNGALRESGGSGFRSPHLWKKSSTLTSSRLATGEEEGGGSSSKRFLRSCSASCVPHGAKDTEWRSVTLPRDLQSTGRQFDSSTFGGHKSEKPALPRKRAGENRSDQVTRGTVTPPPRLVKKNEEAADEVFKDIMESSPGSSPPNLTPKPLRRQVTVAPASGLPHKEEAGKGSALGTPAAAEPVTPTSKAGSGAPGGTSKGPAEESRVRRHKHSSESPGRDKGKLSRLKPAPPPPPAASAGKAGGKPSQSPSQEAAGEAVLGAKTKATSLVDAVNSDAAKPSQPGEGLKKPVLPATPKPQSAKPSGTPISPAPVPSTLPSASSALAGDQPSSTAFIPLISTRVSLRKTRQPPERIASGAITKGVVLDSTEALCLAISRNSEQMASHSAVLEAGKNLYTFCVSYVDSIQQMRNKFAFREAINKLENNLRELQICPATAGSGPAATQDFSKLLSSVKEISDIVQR
T1 sequence (O96017 whole entry): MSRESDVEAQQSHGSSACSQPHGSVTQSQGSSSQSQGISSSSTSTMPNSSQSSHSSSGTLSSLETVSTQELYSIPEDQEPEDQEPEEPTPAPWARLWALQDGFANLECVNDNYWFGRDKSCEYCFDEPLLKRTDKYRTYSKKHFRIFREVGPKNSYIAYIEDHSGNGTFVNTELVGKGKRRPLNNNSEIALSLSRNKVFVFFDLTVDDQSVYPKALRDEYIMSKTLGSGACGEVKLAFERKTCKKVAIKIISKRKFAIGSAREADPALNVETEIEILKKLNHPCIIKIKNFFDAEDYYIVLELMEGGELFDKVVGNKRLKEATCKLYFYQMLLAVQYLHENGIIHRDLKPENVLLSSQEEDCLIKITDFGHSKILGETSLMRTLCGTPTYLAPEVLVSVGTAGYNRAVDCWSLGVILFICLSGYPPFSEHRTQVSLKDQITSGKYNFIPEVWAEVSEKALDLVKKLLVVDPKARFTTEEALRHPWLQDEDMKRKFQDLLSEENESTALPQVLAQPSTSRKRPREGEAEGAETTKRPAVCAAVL
T6 sequence (P51617 whole entry): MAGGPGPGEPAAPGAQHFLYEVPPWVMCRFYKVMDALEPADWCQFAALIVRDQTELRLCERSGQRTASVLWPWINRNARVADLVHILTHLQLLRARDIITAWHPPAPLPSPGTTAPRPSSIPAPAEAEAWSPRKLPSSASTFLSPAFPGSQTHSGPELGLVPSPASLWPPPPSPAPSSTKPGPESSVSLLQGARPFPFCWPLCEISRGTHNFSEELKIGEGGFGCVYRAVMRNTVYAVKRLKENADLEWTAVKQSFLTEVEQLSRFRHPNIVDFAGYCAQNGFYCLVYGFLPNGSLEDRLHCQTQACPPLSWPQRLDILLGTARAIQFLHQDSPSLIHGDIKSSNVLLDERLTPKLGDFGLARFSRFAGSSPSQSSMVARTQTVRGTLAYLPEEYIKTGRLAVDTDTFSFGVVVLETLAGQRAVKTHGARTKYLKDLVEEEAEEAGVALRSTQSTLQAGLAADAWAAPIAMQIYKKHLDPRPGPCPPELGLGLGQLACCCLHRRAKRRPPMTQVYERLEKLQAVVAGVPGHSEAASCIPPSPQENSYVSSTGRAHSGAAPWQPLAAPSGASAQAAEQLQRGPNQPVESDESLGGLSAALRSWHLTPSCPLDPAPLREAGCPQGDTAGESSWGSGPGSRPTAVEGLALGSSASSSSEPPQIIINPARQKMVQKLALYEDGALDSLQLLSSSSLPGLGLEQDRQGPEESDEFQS
T10 sequence (Q9UQM7 whole entry): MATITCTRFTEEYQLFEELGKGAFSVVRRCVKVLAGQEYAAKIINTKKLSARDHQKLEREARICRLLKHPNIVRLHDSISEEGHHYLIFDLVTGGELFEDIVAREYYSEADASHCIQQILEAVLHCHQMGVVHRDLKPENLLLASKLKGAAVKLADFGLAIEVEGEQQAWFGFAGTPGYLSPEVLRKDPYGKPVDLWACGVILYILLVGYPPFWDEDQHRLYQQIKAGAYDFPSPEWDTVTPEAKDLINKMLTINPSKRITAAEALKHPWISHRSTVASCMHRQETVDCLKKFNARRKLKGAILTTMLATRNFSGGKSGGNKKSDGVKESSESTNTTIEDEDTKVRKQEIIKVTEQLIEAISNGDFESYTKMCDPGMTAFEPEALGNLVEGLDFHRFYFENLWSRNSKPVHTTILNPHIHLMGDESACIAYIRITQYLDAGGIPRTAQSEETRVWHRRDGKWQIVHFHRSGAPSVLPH
T2 sequence (P22455 22-802): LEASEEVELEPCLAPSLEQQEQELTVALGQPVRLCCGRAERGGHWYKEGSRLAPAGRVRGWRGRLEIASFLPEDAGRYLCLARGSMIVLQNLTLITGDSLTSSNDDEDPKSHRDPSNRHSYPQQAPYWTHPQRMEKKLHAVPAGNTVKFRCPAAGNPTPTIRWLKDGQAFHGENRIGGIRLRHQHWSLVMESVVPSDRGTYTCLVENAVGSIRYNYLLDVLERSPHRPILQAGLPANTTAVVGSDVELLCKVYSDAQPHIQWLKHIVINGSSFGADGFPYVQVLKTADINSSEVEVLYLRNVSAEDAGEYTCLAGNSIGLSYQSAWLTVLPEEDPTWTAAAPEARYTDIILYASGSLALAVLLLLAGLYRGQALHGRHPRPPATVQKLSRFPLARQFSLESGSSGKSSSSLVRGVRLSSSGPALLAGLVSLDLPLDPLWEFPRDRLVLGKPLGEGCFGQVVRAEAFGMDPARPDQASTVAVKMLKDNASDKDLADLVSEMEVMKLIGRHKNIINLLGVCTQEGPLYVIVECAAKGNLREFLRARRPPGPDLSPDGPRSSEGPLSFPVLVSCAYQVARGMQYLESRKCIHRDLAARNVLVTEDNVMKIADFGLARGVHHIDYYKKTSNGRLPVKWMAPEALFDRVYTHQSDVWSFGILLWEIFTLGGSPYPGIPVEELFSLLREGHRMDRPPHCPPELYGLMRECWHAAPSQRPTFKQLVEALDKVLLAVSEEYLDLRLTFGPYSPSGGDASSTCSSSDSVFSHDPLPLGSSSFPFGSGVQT
T7 sequence (P06241 whole entry): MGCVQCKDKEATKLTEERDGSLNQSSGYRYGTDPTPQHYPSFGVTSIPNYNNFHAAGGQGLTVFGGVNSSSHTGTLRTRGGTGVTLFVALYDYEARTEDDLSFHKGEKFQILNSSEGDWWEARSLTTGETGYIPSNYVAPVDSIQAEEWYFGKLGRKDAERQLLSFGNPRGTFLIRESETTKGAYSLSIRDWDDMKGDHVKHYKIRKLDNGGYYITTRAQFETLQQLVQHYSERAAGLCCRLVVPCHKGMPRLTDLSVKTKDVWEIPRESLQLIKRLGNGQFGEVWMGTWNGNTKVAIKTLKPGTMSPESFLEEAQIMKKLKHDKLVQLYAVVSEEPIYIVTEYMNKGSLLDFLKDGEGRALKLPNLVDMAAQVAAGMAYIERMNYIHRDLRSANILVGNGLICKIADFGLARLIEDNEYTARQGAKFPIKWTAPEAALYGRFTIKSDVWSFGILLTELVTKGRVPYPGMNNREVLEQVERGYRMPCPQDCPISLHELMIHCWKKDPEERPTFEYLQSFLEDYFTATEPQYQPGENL

As to `Clc1cc(NCC2CC2)c2ncc(-c3ccc4[nH]ncc4c3)n2n1` [compound 2, 6-Chloro-N-(cyclopropylmethyl)-3-(1H-indazol-5-yl)imidazo[1,2-b]pyridazin-8-amine], the remaining binding at 1 µM in assay [1] came to 88%; in assay [2] it was 94%; in assay [3], 100%; in [4], 70%; in assay [5], 100%; in assay [6], 95%. Besides, the remaining binding at 1 µM in assay [7] came out at 95%; in [8] it was 76%; in [9] it was 35%; in assay [10] it was 100%.
On to `O=C(CN1CCOCC1)N[C@H]1CC[C@H](Nc2cc(Cl)nn3c(-c4ccc5[nH]ncc5c4)cnc23)CC1` [compound 26], for which the remaining binding at 1 µM in assay [1] came to 61%; in [2], 99%; in [3], 100%; in assay [4], 100%; in [5], 100%; in assay [6], 45%. The remaining binding at 1 µM was 96% in assay [7], 44% in [8], 33% in [9] and 47% in assay [10].
Consider `CN1CCC(CNc2cc(Cl)nn3c(-c4cc5nc(Nc6ccccc6)[nH]c5cc4F)cnc23)CC1` [compound 31, 6-Chloro-3-(6-fluoro-2-(phenylamino)-1H-benzo[d]imidazol-5-yl)-N-((1-methylpiperidin-4-yl)methyl)imidazo[1,2-b]pyridazin-8-amine], for which the remaining binding at 1 µM in [1] came to 100%; in [2], 98%; in assay [3] it was 93%; in assay [4], 100%; in assay [5] it was 95%; in assay [6], 89%. Also, the remaining binding at 1 µM in assay [7] came out at 98%; in [8] it was 58%; in [9] it was 88%; in assay [10], 99%.
